In BigSolDB 2.1:

Cc1coc2c1C(=O)C(=O)c1c-2ccc2c(C)cccc12
solubility (mole fraction)
Conditions	278.15 K	283.15 K	288.15 K	293.15 K	298.15 K	303.15 K	308.15 K	313.15 K	318.15 K	323.15 K
in DMF	0.000919	0.00106	0.00125	0.00146	0.00169	0.00193	0.0022	0.00249	0.00288	0.00335
in acetone	0.00103	0.0012	0.0014	0.00164	0.00194	0.00221	0.00253	0.00287	0.00324	0.0036
in ethanol	6.4e-05	8.08e-05	9.82e-05	0.00012	0.000144	0.000167	0.000198	0.000233	0.000275	0.000332
in ethylene glycol	8.39e-05	9.79e-05	0.000114	0.000132	0.000152	0.000175	0.000201	0.000232	0.000269	0.000317
in isopropanol	0.00029	0.000334	0.000395	0.000456	0.000535	0.000626	0.000729	0.000849	0.00101	0.0012
in methanol	5.56e-05	6.11e-05	6.79e-05	7.64e-05	8.61e-05	9.8e-05	0.000111	0.00013	0.000154	0.000182
in n-butanol	0.000574	0.000636	0.000706	0.000793	0.000903	0.00103	0.00117	0.00135	0.00154	0.00178
in n-propanol	0.000448	0.00051	0.000575	0.00067	0.000756	0.000866	0.000987	0.00113	0.0013	0.00151
in water	5.28e-08	5.74e-08	6.23e-08	6.81e-08	7.47e-08	8.25e-08	9.26e-08	1.04e-07	1.17e-07	1.34e-07
